Experimental data reported in patent US20210379010A1, “COMPOSITIONS COMPRISING CANNABINOIDS FOR USE IN THE TREATMENT OF BIOFILM AND CONDITIONS ASSOCIATED WITH MICROBIAL, FUNGAL, BACTERIAL INFECTIONS” (Yissum Research Development Company of The Hebrew …, priority 2018, published 2021).
Values after ≈ are worked out from the molar mass of the structure shown.

Key:
[1] = tested on: P. aeruginosa biofilm; test: CLSM of treated P. aeruginosa biofilm
[2] = tested on: S. mutans biofilm; test: S. mutans biofilm formation inhibition; type: cell-based; conditions: for MBIC50: S. mutans biofilm formation
[3] = tested on: S.aureus MRSA 43300 biofilm; test: Biofilm formation of MRSA 43300, cannabinoid alone and combined with antibiotic (MBIC/FBIC/FBICI); type: cell-based; conditions: for MBIC AMP: ampicillin alone; for MBIC METH: methicillin alone
[4] = tested on: S.aureus MRSA 33592; test: Growth of MRSA 33592, cannabinoid alone and combined with antibiotic (MIC/FIC/FICI); type: cell-based; conditions: MRSA 33592 growth; for MIC AMP: ampicillin alone; for MIC METH: methicillin alone
[5] = tested on: S.aureus MRSA 43300; test: Growth of MRSA 43300, cannabinoid alone and combined with antibiotic (MIC/FIC/FICI); type: cell-based; conditions: MRSA 43300 growth; for MIC AMP: ampicillin alone; for MIC METH: methicillin alone
[6] = tested on: S.aureus MRSA 33592 biofilm; test: Biofilm formation of MRSA 33592, cannabinoid alone and combined with antibiotic (MBIC/FBIC/FBICI); type: cell-based; conditions: for MBIC AMP: ampicillin alone; for MBIC METH: methicillin alone
[7] = tested on: C. albicans biofilm; test: MTT assay of C. albicans biofilm; type: cell-based
Description: To investigate the effect of the agents on preformed biofilms, biofilms were allowed to mature in for 24 h at 37° C. in a 6-well plate. The biofilms were washed twice with PBS. The active agents were then applied. The plates were further incubated for 24 h at 37° C. The amounts of biofilms, were determined quantitatively using a standard MTT reduction assay as described previously. Briefly, biofilms were overlaid with […] of 3-(4,5-dimethyl-2-thiazolyl)-2,5-diphenyl-2H-tetrazolium bromide (MTT) and incubated for 2 h at 37° C. Under these conditions, the lightly yellowish MTT was reduced to a blue tetrazolium salt accumulated within the metabolic active biofilms. The stain was then dissolved in DMSO and the absorbance value was measured at 570 nm. The accumulation of tetrazolium salt by the reduction of MTT is proportional to the number of viable cells growing in biofilm. Prior to dissolving in DMSO, biofilms were photographed and visualized. Assay was performed in triplicate.

[8] = tested on: S. aureus MRSA 24433 biofilm; test: Biofilm formation of MRSA 24433, cannabinoid alone and combined with antibiotic (MBIC/FBIC/FBICI); type: cell-based; conditions: for MBIC METH: methicillin alone
[9] = tested on: S. aureus MRSA 24433; test: Growth of MRSA 24433, cannabinoid alone and combined with antibiotic (MIC/FIC/FICI); type: cell-based; conditions: for FIC METH / MIC METH: MRSA 24433 growth; for MIC METH: methicillin alone
[10] = tested on: C. albicans biofilm; test: C. albicans biofilm formation inhibition; type: cell-based
[11] = tested on: mixed C. albicans-S. mutans biofilm; test: Co-species C. albicans-S. mutans biofilm formation inhibition; type: cell-based
[12] = tested on: mixed S. mutans-C. albicans; test: Growth of C. albicans-S. mutans co-culture; type: cell-based; conditions: all tested doses
[13] = tested on: C. albicans biofilm; test: Flow cytometry analysis of viable cells in fungal biofilm; type: cell-based; conditions: for granularity: control 136 AU; for cell size: control 260 AU
[14] = tested on: C. albicans; test: C. albicans growth (MIC); type: cell-based; conditions: single C. albicans growth; highest tested dose 64 μg/ml
[15] = tested on: S. mutans; test: S. mutans growth (MIC); type: cell-based; conditions: single S. mutans growth
[16] = tested on: C. albicans biofilm; test: Microscopic observation of fungal morphology in biofilm; type: cell-based
[17] = tested on: fluconazole resistant C. albicans strains; type: cell-based; conditions: each agent alone or in combination; data not shown

CCCCCCCCCCCCCCCC(=O)NCCO [PEA, palmitoyl ethanolamide]
layers/depth of P. aeruginosa biofilm [1]: reduced layers/depth of biofilm

CCCCCCCC/C=C\CCCCCCCC(=O)NCC(=O)O [OG, oleoyl glycine]
MBIC50 [2]: 32 µg/mL

CC1(C)S[C@@H]2[C@H](NC(=O)[C@H](N)c3ccccc3)C(=O)N2[C@H]1C(=O)O [AMP, ampicillin, reference compound]
FBIC AMP ([3]; MBIC of ampicillin in combination with AEA, Table 8B): 8
FBIC AMP ([3]; MBIC of ampicillin in combination with ARAS, Table 5B): 64
MBIC AMP ([3]; Table 5B): 256
MBIC AMP ([3]; Table 8B): >128
FIC AMP ([4]; MIC of ampicillin in combination with AEA, Table 8A): 8
FIC AMP ([4]; MIC of ampicillin in combination with ARAS, Table 5A): 64
MIC AMP ([4]; Table 5A): 128 µg/mL
MIC AMP ([4]; Table 8A): 128 µg/mL
FIC AMP ([5]; MIC of ampicillin in combination with AEA, Table 8B): 8
FIC AMP ([5]; MIC of ampicillin in combination with ARAS, Table 5B): 16
MIC AMP ([5]; Table 5B): 256 µg/mL
MIC AMP ([5]; Table 8B): > 128 µg/mL
FBIC AMP ([6]; MBIC of ampicillin in combination with AEA, Table 8A): 8
FBIC AMP ([6]; MBIC of ampicillin in combination with ARAS, Table 5A): 32
MBIC AMP ([6]; Table 5A): 128
MBIC AMP ([6]; Table 8A): 128

CCCCC/C=C\C/C=C\C/C=C\C/C=C\CCCC(=O)OC(CO)CO [2-AG, 2-arachidonoyl glycerol]
C. albicans biofilm formation (MTT assay) [7]: dose-dependent inhibition

COc1cccc(OC)c1C(=O)N[C@@H]1C(=O)N2[C@@H]1SC(C)(C)[C@@H]2C(=O)O [METH, methicillin, reference compound]
FBIC METH ([3]; MBIC of methicillin in combination with AEA, Table 6C): 8
FBIC METH ([3]; MBIC of methicillin in combination with ARAS, Table 3C): 8
MBIC METH ([3]; Table 3C): 32
MBIC METH ([3]; Table 6C): 32
FBIC METH ([8]; MBIC of methicillin in combination with AEA, Table 1): 16 µg/mL
FBIC METH ([8]; MBIC of methicillin in combination with AEA, Table 6B): 16
FBIC METH ([8]; MBIC of methicillin in combination with ARAS, Table 3B): 16
MBIC METH ([8]; Table 1): >64 µg/mL
MBIC METH ([8]; Table 3B): >64
MBIC METH ([8]; Table 6B): >64
FIC METH ([4]; MIC of methicillin in combination with AEA, Table 6A): 16
FIC METH ([4]; MIC of methicillin in combination with ARAS, Table 3A): 8
MIC METH ([4]; Table 3A): 32 µg/mL
MIC METH ([4]; Table 6A): 32 µg/mL
FIC METH ([5]; MIC of methicillin in combination with AEA, Table 6C): 8
FIC METH ([5]; MIC of methicillin in combination with ARAS, Table 3C): 2
MIC METH ([5]; Table 3C): 32 µg/mL
MIC METH ([5]; Table 6C): 32 µg/mL
FIC METH ([9]; MIC of methicillin in combination with AEA, Table 1): 16 µg/mL
FIC METH ([9]; MIC of methicillin in combination with AEA, Table 6B): 16
FIC METH ([9]; MIC of methicillin in combination with ARAS, Table 3B): >64
MIC METH ([9]; Table 1): >64 µg/mL
MIC METH ([9]; Table 3B): > 64 µg/mL
MIC METH ([9]; Table 6B): > 64 µg/mL
MIC ([9]; Staphylococcus aureus, MRSA, read-out: MIC METH): > 64 µg/mL
FBIC METH ([6]; MBIC of methicillin in combination with AEA, Table 6A): 8
FBIC METH ([6]; MBIC of methicillin in combination with ARAS, Table 3A): 8
MBIC METH ([6]; Table 3A): 32
MBIC METH ([6]; Table 6A): 32

CCCCCCC(C)(C)c1cc(O)c2c(c1)OC(C)(C)[C@@H]1CC=C(CO)C[C@@H]21 [HU210, 1,1-Dimethylheptyl-11-hydroxy-tetrahydrocannabinol]
biofilm formation at highest tested dose ([10]; HU210 64 μg/ml): Almost no biofilm formed
MBIC50 (minimal biofilm inhibitory concentration 50, 50% of biofilm inhibition) ([10]; single C. albicans biofilm formation): 2 µg/mL
MBIC50 [11]: 4 µg/mL
growth of co-culture [12]: not affected
streptococcal biofilm formation ([2]; HU210 2 μg/ml): No streptococcal biofilm was formed
granularity ([13]; 8 μg/ml): 50 AU
cell size ([13]; 8 μg/ml): 110 AU
viable C. albicans cells in biofilm ([13]; 8 μg/ml, untreated control 88%): 20%
viable cells in fungal biofilm ([13]; 64 μg/ml): totally reduced viable cells
granularity ([13]; 64 μg/ml): 40 AU
cell size ([13]; 64 μg/ml): 100 AU
MIC, fungal growth [14]: not detected at tested doses
MIC [15]: 2 µg/mL (≈ 5.17 µM)
fungal morphology in biofilm ([16]; 8 μg/ml): influenced fungal morphology
yeast-to-hyphae transition ([16]; 64 μg/ml): appearance of mainly yeast form of C. albicans
density of fungal mycelium ([16]; increasing doses up to 64 μg/ml): decreased dose-dependently

CCCCCCCC/C=C\CCCCCCCC(=O)N[C@@H](C)C(=O)O [OA, oleoyl alanine]
MBIC50 [2]: 16 µg/mL

OC(Cn1cncn1)(Cn1cncn1)c1ccc(F)cc1F [FLU, fluconazole, reference compound]
growth of fluconazole resistant fungal strains [17]: not affected

CCCCCCCC/C=C\CCCCCCCC(=O)NCCO [OEA, oleoyl ethanolamide]
MBIC50 [2]: 64 µg/mL

gentamycin [reference compound]
decrease of MIC in combination ([4]; AEA with gentamicin vs agent alone): 32 fold
FIC GEN ([4]; MIC of gentamicin in combination with AEA, Table 7): 4
FIC GEN ([4]; MIC of gentamycin in combination with ARAS, Table 4): 4
MIC GEN ([4]; gentamicin alone, Table 7): 128 µg/mL
MIC GEN ([4]; gentamycin alone, Table 4): 128 µg/mL
FBIC GEN ([6]; MBIC of gentamicin in combination with AEA, Table 7): 8
FBIC GEN ([6]; MBIC of gentamycin in combination with ARAS, Table 4): 4
MBIC GEN ([6]; gentamicin alone, Table 7): 128
MBIC GEN ([6]; gentamycin alone, Table 4): 128
